Values joined by “and” are separate entries in the source; they are usually repeats but may differ in a detail not shown here. Identical values can stand only once. “Also recorded” adds a separate entry of the source.
Key:
[1] = system: in vitro co-culture model of BBB (bEnd.3 cells and mouse primary astrocytes); assay: NaF permeability across BBB co-culture (barrier integrity); assay type: in vitro ADME; settings: Figure S1
bEnd.3 cells = assay: MTS cell viability assay in bEnd.3 cells
Oct-2 = settings: cited from earlier work; for IC50: read-out: IC50 for 10 µM Metformin Uptake, Oct-2, 10 µM metformin
mouse primary astrocytes = assay: MTS cell viability assay in mouse primary astrocytes; assay type: cell-based; settings: 3 h, concentrations used in permeability studies (MF 1, 10, 20 mM; mitoxantrone 25 µM; corticosterone 150 µM)
Oct-3 = settings: cited from earlier work; for IC50: read-out: IC50 for 10 µM Metformin Uptake, Oct-3, 10 µM metformin
Oct-1 = settings: cited from earlier work; for IC50: read-out: IC50 for 10 µM Metformin Uptake, Oct-1, 10 µM metformin
[2] = human subjects; cited from earlier work
P-gp (MDR1) = molecular target: T1, P-gp (MDR1) (Homo sapiens, UniProt P08183); assay: P-glycoprotein efflux transporter substrate assay (MDR1-MDCK transwell); assay type: in vitro ADME; settings: dog, MDR1-MDCK, 10 µM MF, 120 min
T1 construct: host or cells: MDR1-MDCK (MDCK cells overexpressing MDR1)
T1 sequence (P08183 whole entry): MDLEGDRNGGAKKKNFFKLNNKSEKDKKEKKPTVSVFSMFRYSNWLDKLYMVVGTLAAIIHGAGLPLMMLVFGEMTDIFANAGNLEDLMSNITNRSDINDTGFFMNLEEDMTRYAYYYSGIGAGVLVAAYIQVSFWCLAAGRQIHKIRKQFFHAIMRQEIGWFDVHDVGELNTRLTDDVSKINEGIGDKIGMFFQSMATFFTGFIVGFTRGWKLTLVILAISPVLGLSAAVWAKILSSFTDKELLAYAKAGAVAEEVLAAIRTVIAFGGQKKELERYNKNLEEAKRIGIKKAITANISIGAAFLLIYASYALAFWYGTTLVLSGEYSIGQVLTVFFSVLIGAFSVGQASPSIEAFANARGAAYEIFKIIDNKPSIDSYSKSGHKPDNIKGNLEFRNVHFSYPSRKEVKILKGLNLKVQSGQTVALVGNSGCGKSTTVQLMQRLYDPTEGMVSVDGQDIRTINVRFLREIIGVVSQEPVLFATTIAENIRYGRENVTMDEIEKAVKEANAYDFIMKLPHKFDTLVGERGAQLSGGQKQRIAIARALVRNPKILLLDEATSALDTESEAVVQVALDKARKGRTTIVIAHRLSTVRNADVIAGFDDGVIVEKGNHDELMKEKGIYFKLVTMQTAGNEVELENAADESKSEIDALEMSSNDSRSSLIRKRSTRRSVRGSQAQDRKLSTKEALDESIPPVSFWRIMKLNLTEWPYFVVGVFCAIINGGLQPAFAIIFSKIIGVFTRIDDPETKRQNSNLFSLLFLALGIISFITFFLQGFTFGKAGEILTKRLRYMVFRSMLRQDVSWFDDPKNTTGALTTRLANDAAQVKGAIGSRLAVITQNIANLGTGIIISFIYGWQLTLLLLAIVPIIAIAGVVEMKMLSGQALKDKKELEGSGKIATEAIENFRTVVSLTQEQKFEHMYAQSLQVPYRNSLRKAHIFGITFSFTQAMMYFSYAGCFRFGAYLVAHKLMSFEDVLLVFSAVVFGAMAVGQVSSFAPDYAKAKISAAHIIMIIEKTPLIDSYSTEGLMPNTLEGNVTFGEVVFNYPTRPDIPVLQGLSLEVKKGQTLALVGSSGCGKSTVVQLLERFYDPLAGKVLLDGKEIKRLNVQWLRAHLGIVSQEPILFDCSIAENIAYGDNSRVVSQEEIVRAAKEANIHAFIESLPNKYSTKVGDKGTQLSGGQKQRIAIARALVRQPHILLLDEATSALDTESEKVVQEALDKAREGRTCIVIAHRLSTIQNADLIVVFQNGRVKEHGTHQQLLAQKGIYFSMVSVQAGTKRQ
Description: (§1) For P-GP efflux assay, MDR1-MDCK 12-well transport assay (MB Biosciences LLC, Natick, MA, USA) was used. The cells were maintained in high glucose DMEM media supplied with 10% FBS, non-essential amino acid, penicillin/streptomycin, L-glutamine, and colchicine as recommended by the supplier. After the shipping medium was changed to a fresh MDR1-MDCK cell culture medium, the plate was kept in the incubator for 24 h before performing the experiment. […] The inhibitor was present on both sides of the compartments during pre-incubation of 30 min and during the transport experiment. After 120 min of incubation at 37 °C, samples were collected from the basolateral chamber and quantified by LC-MS/MS method. […] The permeability coefficient (PC, cm/s) was calculated using the published literature method. The PC value from apical (A) to basolateral (B) compartment in the presence and absence of CsA was used to calculate the unidirectional flux ratio (UFR), which is defined by the following equation:(3) UFR=PC, A−to−B+CsA/PC,A−to−B−CsA

P-GP = molecular target: T2, P-GP (Homo sapiens, UniProt P08183); assay: as above; assay type: in vitro ADME
T2 construct: host or cells: MDR1-MDCK (MDCK cells overexpressing MDR1)
T2 sequence (P08183 whole entry): as above
Description: as §1

hOCT2 = settings: read-out: apparent IC50 of MF for uptake of tracer [14C] MF; cited from earlier work
[3] = 3 h, concentrations used in permeability studies (MF 1, 10, 20 mM; mitoxantrone 25 µM; corticosterone 150 µM)
[4] = single transporter-expressing cell line, read-out: apparent Km of saturable MF uptake

For `O=C([O-])c1ccccc1-c1c2ccc(=O)cc-2oc2cc([O-])ccc12.[Na+].[Na+]` [NaF, sodium fluorescein], the “PC of NaF compared with [14C] sucrose” value [1] was “no statistically significant difference”.

In the case of `CNCCCN1c2ccccc2CCc2ccccc21` [desipramine], the “toxicity to cells (MTS cell viability)” value (bEnd.3 cells; 200 µM, 4 h incubation) is reported as “toxic; also recorded: significantly affected” and the “toxicity to cells (MTS cell viability)” value (bEnd.3 cells; 100 µm, 4 h incubation) is reported as “significantly affected”.

For `O=C1c2c(O)ccc(O)c2C(=O)c2c(NCCNCCO)ccc(NCCNCCO)c21` [Mitoxantrone], the IC50 (Oct-2) is listed as 135 µM, the “toxicity to cells (MTS cell viability)” value (mouse primary astrocytes) is listed as “not toxic” and the IC50 (Oct-3) is listed as 174 µM. The “toxicity to cells (MTS cell viability)” value (bEnd.3 cells; [3]) was “not toxic”, the “IC50 for Oct1 lower than for Oct2 and Oct3 (selectivity)” value (Oct-1; estimated IC50) was 40–60 fold and the “inhibition of the respective transporter (Oct1)” value (Oct-1; mitoxantrone at 25 µM, based on Table 1) was over 80%. For the same molecule, the IC50 (Oct-1) was 3 µM.

For `C[C@]12C[C@H](O)[C@H]3[C@@H](CCC4=CC(=O)CC[C@@]43C)[C@@H]1CC[C@@H]2C(=O)CO` [Corticosterone], the IC50 (Oct-2) is listed as 1.3 µM, the “toxicity to cells (MTS cell viability)” value (mouse primary astrocytes) is listed as “not toxic” and the IC50 (Oct-3) is listed as 0.2 µM. The “toxicity to cells (MTS cell viability)” value (bEnd.3 cells; [3]) was “not toxic” and the IC50 (Oct-1) was 3.2 µM.

For `C[n+]1ccc(-c2ccccc2)cc1` [MPP+], the “toxicity to cells (MTS cell viability)” value (bEnd.3 cells; 5 mM, 4 h incubation) was “toxic; also recorded: significantly affected”.

In the case of `CN(C)C(=N)N=C(N)N` [MF, metformin], the Km (Oct-2; [4]) is given as 600 µM, the “toxicity to cells (MTS cell viability)” value (mouse primary astrocytes) is given as “not toxic” and the Km (Oct-3; [4]) is given as 2600 µM. For the same molecule, the steady-state concentration [2] was 1.8 µg/mL and 13 µM, the Papp B→A at 120 min, 10 µM (P-gp (MDR1)) was 0.163 ± 0.006 ×10⁻⁶ cm/s and the Papp A→B at 120 min, 10 µM (P-gp (MDR1); without CsA) was 0.258 ± 0.018 ×10⁻⁶ cm/s. For the same molecule, the “Metformin PC, A > B, +CsA” value (P-GP; MDR1-MDCK, 10 µM MF, 120 min, with CsA 10 µM) was 3.28 ± 0.06 1 × 10^−7 cm/s, the “interaction with the efflux transporter P-GP” value (P-GP; P-GP overexpressing cell line) was “does not interact” and the IC50 (hOCT2) was about 2000 µM. For the same molecule, the “toxicity to cells (MTS cell viability)” value (bEnd.3 cells; [3]) was “not toxic” and the Km (Oct-1; [4]) was 3100 µM.
